# Experimental data from patent US20250243174A1, “ANTITUMORAL COMPOUNDS” (PHARMA MAR, S.A., priority 2021, published 2025).
# Legend:
# A549 = assay: SRB colorimetric cytotoxicity assay, A549; type: cell-based; settings: Homo sapiens, A549, 72 h, read-out: GI50 (M) A549
# Text: (§1) The aim of this assay is to evaluate the in vitro cytostatic (ability to delay or arrest tumor cell growth) or cytotoxic (ability to kill tumor cells) activity of the samples being tested.
# (§2) A colorimetric assay, using sulforhodamine B (SRB) reaction has been adapted to provide a quantitative measurement of cell growth and viability (using the technique developed by Skehan et al., J. Natl. Cancer Inst. 1990 and following the protocol detailed in V. Vichai and K. Kirtikara (2006) Nature Protoc. 1, 1112-1116.)
# (§3) This form of assay employs 96-well cell culture microplates. All the cell lines used in this study were obtained from the American Type Culture Collection (ATCC), unless otherwise indicated, and derive from different types of human cancer.
# (§4) Cells were maintained in Dulbecco's Modified Eagle Medium (DMEM) (for A549, HT-29 and MDA-MB-231) or RPMI (for PSN-1) supplemented with 10% Fetal Bovine Serum (FBS), 2 mM L-glutamine, 100 U/mL penicillin and 100 U/mL streptomycin at 37° C., 5% CO2 and 98% humidity. For the experiments, cells were harvested from subconfluent cultures using trypsinization and resuspended in fresh medium before counting and plating.
# (§5) Cells were seeded in 96 well microtiter plates, at 5×10^3 cells per well in aliquots of 150 μL, and allowed to attach to the plate surface for 18 hours (overnight) in drug free medium. After that, one control (untreated) plate of each cell line was fixed (as described below) and used for time zero reference value. Culture plates were then treated with test compounds (50 μL aliquots of 4× concentrated compound stock solutions made in complete culture medium) using ten serial dilutions (concentrations ranging from […]) and triplicate cultures (final concentration of DMSO being 1%). After 72 hours treatment, the antitumor effect was measured by using the SRB methodology: Briefly, cells were washed twice with PBS, fixed for 15 min in 1% glutaraldehyde solution at room temperature, rinsed twice in PBS, and stained in 0.4% SRB solution for 30 min at room temperature. Cells were then rinsed several times with 1% acetic acid solution and air-dried at room temperature. SRB was then extracted in 10 mM trizma base solution and the absorbance measured in an automated spectrophotometric plate reader at 490 nm. Effects on cell growth and survival were estimated by applying the NCI algorithm (Boyd M R and Paull K D. Drug Dev. Res. 1995, 34, 91-104).
# (§6) Using the mean±SD of triplicates, a dose-response curve was automatically generated using nonlinear regression analysis to a 4-parameter logistic curve. Three reference parameters were calculated (NCI algorithm) by automatic interpolation: GI50=compound concentration that produces […] cell growth inhibition, as compared to control cultures.
# HT29 = assay: SRB colorimetric cytotoxicity assay, HT29; type: cell-based; settings: Homo sapiens, HT-29, 72 h, read-out: GI50 (M) HT29
# Text: as §1, §2, §3, §4, §5, §6
# MDA-MB-231 = assay: SRB colorimetric cytotoxicity assay, MDA-MB-231; type: cell-based; settings: Homo sapiens, MDA-MB-231, 72 h, read-out: GI50 (M) MDA-MB-231
# Text: as §1, §2, §3, §4, §5, §6
# PSN-1 = assay: SRB colorimetric cytotoxicity assay, PSN-1; type: cell-based; settings: Homo sapiens, PSN1, 72 h, read-out: GI50 (M) PSN-1
# Text: as §1, §2, §3, §4, §5, §6
# [1] = MTD (Maximum Tolerated Dose) determination; settings: Athymic Nude-Fox1 nu/nu, mouse, in vivo; iv, single dose; female athymic nude mice
# Protocol: (§7) Female Athymic Nude-Fox1 nu/nu mice (Envigo) were utilized for all experiments. Animals (N=10/cage) were housed in individually ventilated cages (Sealsafe Plus®, Techniplast S.P.A.), on a 12-hour light-dark cycle at 21-23° C. and 40-60% humidity. Mice were allowed free access to irradiated standard rodent diet (Tecklad 2914C) and sterilized water. Animals were acclimated for five days prior to being individually tattoo-identified. Animal protocols were reviewed and approved according to the regional Institutional Animal Care and Use Committees.
# (§8) Mice were randomly allocated into experimental groups and intravenously administered, once for the MTD (Maximum Tolerated Dose) determination or one administration a week during three consecutive weeks, for the MTMD (Maximum Tolerated Multiple Dose) determination study. The animals were administered with white formulation or with compound dissolved in the experimental formulation at different concentrations. The volume administered was always 10 mL/kg. Once administered, animals were monitored for clinical signs of systemic toxicity, changes in body weight and mortality up to 14 days after the administration.
# [2] = MTMD (Maximum Tolerated Multiple Dose) determination; type: in vivo; settings: iv, Q7dx3; female athymic nude mice
# Protocol: as §7, §8
# H460 xenografts = assay: Comparative Example, in vivo H460 xenograft (PM050489); design: species or system mice; settings: 0.08 mg/kg iv
# Protocol: H460 cells were maintained in vitro at 37° C. with 5% CO2 in Dulbecco's Modified Eagle's Medium (Sigma-Aldrich, Co). Culture cells were passaged every 3 to 5 days upon reaching confluence. Each animal was subcutaneously implanted (on the right flank using 26G needle and a 1 cc syringe) at 4-6 weeks of age with 5×10^6 H460 cells suspended in 0.05 mL of a solution consisting of 50% Matrigel (Corning Incorporated Life Sciences) and 50% medium without serum or antibiotics.
# Antitumor activity of PM050489 was evaluated in one human tumor model, NSCLC (H460) xenografted in immunodepressed mice. All treatments were intravenously administered at their MTD.
# When tumors reached ca. 150-200 mm^3, tumor bearing animals (N=10/group) were randomly allocated into the following treatment groups: • PM050489 (0.08 mg/kg) • Placebo
# Treatments were intravenously administered once per week for 2 consecutive weeks (days 0 and 7).
# Tumor dimensions and body weights were recorded 3 times per week starting from the first day of treatment (Day 0). Treatments producing >20% lethality and/or 20% net body weight loss were considered toxic. Tumor volume was calculated using the equation (a·b^2)/2, where a and b were the longest and shortest diameters, respectively. Animals were euthanized when their tumors reached ca. 2,000 mm^3 and/or severe necrosis was seen. Median, mean and SD were calculated for tumor volume on each measurement day.
# Antitumor effect was calculated by using ΔT/ΔC (%) and tumor growth delay (TGD). ΔT/ΔC was defined as a percentage of the change in tumor volume for each treated (T) and placebo (C) group. ΔT/ΔC was calculated immediately before the 2nd dose and on the 4th week of the study. TGD was expressed as a percentage by which the treated group volume was delayed and calculated by applying [(Dt−Dc)/Dc]100, where […] were the median times in days for treated and control groups in attaining a specified volume, fixed as 1,000 mm^3.
# Treatment tolerability was assessed by monitoring body weight evolution, clinical signs as well as evidences of local damage in the injection site.
structure (smiles),measurement,setting,value
"COC1=CC[C@@H]([C@@H](C)/C=C(C)/C=C\C=C/C(=O)N[C@H](C(=O)N/C=C\C[C@H](C/C=C(\C)Cl)OC(N)=O)C(C)(C)C)OC1=O [PM050489, reference compound]",GI50,A549,8.59e-11 M
same,GI50,HT29,3.91e-11 M
same,GI50,MDA-MB-231,1.37e-10 M
same,GI50,PSN-1,1.9e-10 M
same,MTD at 14 days,[1],0.075 mg/kg
same,MTMD,[2],0.075 mg/kg
same,treatment tolerability,H460 xenografts,prematurely finished because of severe necrosis in the tumor masses and/or decreases in body weight values
same,ΔT/ΔC (%) Day 7,"H460 xenografts; days 0 and 7, Day 7",103.5%
same,TGD (%),"H460 xenografts; tumor growth delay, target volume 1,000 mm^3",40.0%
